Here are results for 1 compound from article PMC6010102, “N-thioalkylcarbazoles derivatives as new anti-proliferative agents: synthesis, characterisation and molecular mechanism evaluation” (Journal of Enzyme Inhibition and Medicinal Chemistry, 2018).

Where only a bound is given, the exact number is not on record here.

For test [1], the system named is 3T3-L1 murine fibroblasts. Put plainly: MTT cell viability, 3T3-L1. Type of test: cell-based. The note with it: Mus musculus, non-tumoural cells, 72 h exposure, mean ± SD, read-out: Antiproliferative activity IC50, 3T3-L1. The text has this: The six cell lines used in this work were purchased from American Type Culture Collection (ATCC, Manassas, VA). MCF-7 human breast cancer cells, oestrogen receptor (ER) positives, were maintained in Dulbecco’s Modified Eagle’s Medium/Nutrient Mixture F-12 Ham (DMEM/F12), supplemented with 5% foetal bovine serum (FBS) and 100 U/ml penicillin/streptomycin, as previously described. MDA-MB-231, human breast cancer cells, oestrogen receptor (ER) negative, were maintained in Dulbecco’s Modified Eagle’s Medium/Nutrient Mixture F-12 Ham (DMEM/F12), supplemented with 5% Newborn Calf Serum (NCS) and 100 U/ml penicillin/streptomycin. HeLa human epithelial cervix carcinoma cells, oestrogen receptor (ER) negative, and ISHIKAWA human endometrial adenocarcinoma cell, oestrogen receptor positive, were maintained in minimum essential medium (MEM), supplemented with 10% FBS, 100 U/ml penicillin/streptomycin and 1% non-essential amino acid. 3T3-L1 cells line of murine fibroblasts of embryonic type, were maintained in DMEM, supplemented with 10% NCS and 100 U/ml penicillin/streptomycin. MCF-10A human mammary epithelial cells were cultured in DMEM/F12 medium, supplemented with 5% horse serum (HS) (Eurobio, Les Ullis, Cedex, France), 100 U/ml penicillin/streptomycin, […] hydrocortisone, 20 ng/ml hEGF (human epidermal growth factor), 10 μg/ml insulin and […] cholera enterotoxin (Sigma-Aldrich, Milano, Italy). Cells were maintained at 37 °C in a humidified atmosphere of 95% air and 5% CO2 and periodically screened for contamination.
MDA-MB-231, MCF-7, HeLa and ISHIKAWA cells were grown in complete medium and, before being treated, they were serum deprived for 24 h, to allow cell cycle synchronisation. Then cells were grown in phenol red-free medium supplemented with 1% DCC (destran-coated charcoal treated) FBS, then treated with increasing concentrations (0.1, 1, 10, 20, 40, 100 µM) of each compound for 72 h. Compounds were dissolved in dimethylsulphoxide (DMSO) (Sigma, St. Louis, MO) and diluted in each cell medium. Untreated cells, used as a control, were added with DMSO alone (final concentration 0.1%). Cell viability was assessed using the 3-[4,5-dimethylthiazol-2-yl]-2,5-diphenyltetrazolium bromide reagent (MTT), according to the protocol from manufacturer (Sigma-Aldrich, Milan, Italy), as previously described[37] ^, [38]. For each sample, the mean absorbance, measured at 570 nm, was expressed as a percentage of the control and plotted versus drug concentration to determine for each cell line the IC50 values (namely, drugs concentrations able to reduce cell viability of 50% with respect to the control), using GraphPad Prism 5 Software (GraphPad Inc., San Diego, CA)[39]. Each experiment was carried out in quadruplicate. Standard deviations (SD) were shown.

Test [2] concerns Cytochrome c. Kind of test: Cytochrome c immunofluorescence in HeLa cells. Type of test: cell-based, human. The note with it: concentration equal to IC50, 24 h. As for the experimental part: Cells were grown on glass coverslips in full media, then serum-deprived for 24 h and exposed to compound to test, at the indicated time. Then, they were PBS-washed, fixed with cold methanol (15 min/−20 °C) and washed three times (10 min/room temperature) with cold PBS containing 0.01% TritonX-100. After incubation (30 min/room temperature) with blocking solution (PBS, 2% BSA), they were incubated with primary antibody diluted in blocking solution (4 °C/overnight). The mouse anti-cytochrome c (556433) was purchased from BD Biosciences (Franklin Lakes, NJ) and used at 1:100 dilution. Coverslips were then washed three times with PBS, then fixed cells were incubated with the secondary antibody Alexa Fluor® 568 conjugate goat-anti-mouse (1:500, Thermo Fisher Scientific, Waltham, MA). Nuclei were stained using DAPI (Sigma-Aldrich, Milan, Italy) for 10 min at a concentration of 0.2 µg/mL then washed three times with PBS. Fluorescence was detected using a fluorescence microscope (Leica DM 6000 Leica, Frankfurt am Main, Germany). LASX software was used to acquire and process all images.

The IC50 is the midpoint of a concentration-inhibition curve. Take `Cc1ccc(C)c2c1c1cc(Br)ccc1n2CCCCCCCS` [5c, 7-(6-Bromo-1,4-dimethyl-9H-carbazol-9-yl)-heptane-1-thiol]: in test [1], the IC50 is above 100 µM. Further, the Cytochrome c localisation entry in test [2] is on record as “determines the release of Cytochrome c from mitochondria to the cytosol”.
